Tested on: Sprague-Dawley rats
Test: Topical administration of AGN 193109 to rats with Recovery group (Example 4)
Assay type: in vivo, rat
Description: This experiment is conducted as indicated in Example 2, except that the drug is 193109 rather than AGN 194310, and a Recovery group is monitored for a period of time post-treatment as in Example 3. Dosages of the '109 drug is the same as for the topical treatment with the '310 drug.

[1] = rats, topical, at the effective dose

Cc1ccc(C2=CCC(C)(C)c3ccc(C#Cc4ccc(C(=O)O)cc4)cc32)cc1 [AGN 193109]
reversibility (testes histology) (male rats 12 weeks after administration): repopulation of the tubules with males gametes in various stages of development | histological analysis of the testes [1]: absence of primary spermatocytes, spermatids and spermatozoa in the majority of animals' seminiferous tubules | spermatogenic arrest (examination of the testes) [1]: spermatogenic arrest can be seen within thirty days after initiation of treatment
